Assay results: article PMC8398714, “Synthesis and Evaluation of Biological Activities of Bis(spiropyrazolone)cyclopropanes: A Potential Application against Leishmaniasis” (Molecules, 2021)
Like-named read-outs stand apart in the source and are kept apart here.

How the values were obtained:
[1] = Cytotoxicity, MTT assay on RAW 264.7 macrophages; format: cell-based; details: mouse
Experimental: Raw 264.7 (ATCC® TIB-71™) was maintained in Dulbecco’s Modified Eagle Medium (DMEM) (Gibco, Invitrogen, Gibco, Carlsbad, CA, USA) supplemented with 10% fetal bovine serum (FBS) (Eurobio, Les Ulis, France) and 100 IU/mL penicillin + 100 μg/mL streptomycin (Gibco), at 37 °C in a 5% CO2 atmosphere. The medium was renewed once a week. The viability was determined using MTT (Thiazolyl Blue Tetrazolium Bromide) dye assay as described before for leishmanicidal activity assessment, with some variations. Here, 5 × 10^4 cells/well in a final volume of 100 µL were deposited into a 96-well plate, in triplicate. Saponin (2.4 mg/mL) and untreated cells were used as positive control and negative control, respectively. A stock solution was prepared in DMSO and immediately diluted in media to obtain different serial concentrations (100–0.01 µM). After 48 h exposure to the compounds, 10 µL/well of MTT (5 mg/mL MTT in PBS) were added, and the plate was incubated at 37 °C for 2 h in the dark. Cells were pelleted by centrifugation at 4400 rpm for 10 min and the media was removed. Then, 100 µL/well of DMSO were added and the absorbance at 570 nm was recorded; a reference wavelength of 630 nm was used for background subtraction.

[2] = system: promastigotes of Leishmania mexicana; test: Leishmanicidal activity, MTT assay on promastigotes; format: cell-based; details: for SI (Selectivity Index) = Citotoxic activity/Leishmanicidal activity: CC50 RAW / IC50 L. mexicana; for IC50: Leishmania mexicana
Experimental: The leishmanicidal activity of all compounds was evaluated by measuring promastigotes’ mitochondrial activity using MTT colorimetric assay as described previously. In this study, promastigotes from Leishmania mexicana were used. The species were confirmed by amplifying and sequencing cytochrome b gene. Promastigotes were cultured at 25 °C in Schneider’s Drosophila Medium (Gibco, Invitrogen, Carlsbad, CA, USA) supplemented with 10% fetal bovine serum (Eurobio, Les Ulis, France). The medium was renewed every third day. Parasite density was determined by counting the cells using a Neubauer chamber.
Into each well of a 96-well plate were dispensed 1 × 10^6 parasites/well. A stock solution of the compounds was prepared in DMSO (Sigma Aldrich, Saint Louis, MO, USA), and serial dilutions were added to the parasite suspension, leading to concentrations ranging from 100 to 0.001 µM, keeping the solvent concentration at 0.5%. The final volume was 200 µL for each well and triplicate conditions were carried out. Amphotericin B (Gibco) treatment (1 µM) untreated parasites and DMSO 0.5% were used as positive and negative controls, respectively. After exposure to the compounds for 48 h in culture medium, 20 µL of a solution of 5 mg/mL MTT dissolved in PBS were added to each well. The plate was incubated at 25 °C for 2 h in darkness. The plate was then centrifuged at 4400 rpm for 10 min and the culture medium was then aspirated; 50 µL of DMSO were added into each well to solubilize the formazan crystals and the plate was shaken for 5 min and then it was measured by recording changes in absorbance at 570 nm using a microplate reader Cytation 5 (BioTek) spectrophotometer. A reference wavelength of 630 nm was used as background subtraction. Optical densities were analyzed because the quantity of formazan is directly proportional to the number of viable parasites. Data were analyzed with the statistical software GraphPad Prism 7.02 (GraphPad Software, Corp.).

PC-3 = test: MTS cell viability assay on PC-3 cells; format: cell-based; details: Homo sapiens, 48 h; for inhibition at 100 µM: Dox 1 µM, mean ± SEM, NA = no activity, read-out: Percentage (%) of inhibition, PC-3; for IC50: 15-150 µM, mean ± SEM of triplicates
Experimental: (§1) Five tumor human cancer cell lines—cerebral astrocytoma (D-384), grade IV prostatic adenocarcinoma (PC-3), mammary adenocarcinoma (MCF-7), human colon carcinoma (RKO) and lung carcinoma (A-549)—along with one immortalized hamster cell line (CHO K-1) were used. The cells PC-3, MCF-7 and RKO were cultured in RPMI-1640, D-384 on DMEM and CHO K-1 on HAM F-12 medium supplemented with 10% fetal bovine serum (FBS, Invitrogen, Karlsruhe, Germany), 1% antibiotic-antimitotic solution (100 units/mL penicillin G, 100 µg/mL streptomycin, and 0.25 µg/mL amphotericin B, Gibco, Grand Island, NY, USA), and 1% L-glutamine (2 mM, Gibco). The cells were incubated at 37 °C in a 5% CO2 atmosphere. The viable cells were counted using the trypan blue exclusion method in a hemocytometer.
(§2) The MTS (5-[3-(carboxymethoxy)phenyl]-3-(4,5-dimethyl-2-thiazolyl)-2-(4-sulfo- phenyl)-2H-tetrazolium inner salt) cell viability assay was used to assess the inhibitory effects of the extracts on the survival of human cancer cell lines. A total of 3–5 × 10^3 cells/well were seeded into 96-well plates and were allowed to adhere for 24 h. […] Each concentration/assay was performed three times. Dimethyl sulfoxide (DMSO) was used as a negative control at a final concentration of 0.1% v/v, and 1 µM Doxorubicin was used as a positive control. The cells were incubated with the treatments for 48 h, after which 20 µL MTS (5 mg/mL, Aqueous One Solution Reagent, Gibco) was added and further incubated for 4 h at 37 °C. The absorbance was measured at 570 nm. The data obtained with cells treated with DMSO were defined to represent 100% viability.

A-549 = test: MTS cell viability assay on A-549 cells; format: cell-based; details: Homo sapiens, A549; 100 µM, 48 h; Dox 1 µM; mean ± SEM; NA = no activity; read-out: Percentage (%) of inhibition, A-549
Experimental: as §1, §2

CHO-K1 cells = format: cell-based, hamster
Experimental: Cells were mixed with 150 μL low-melting-point agarose 1% (LMP, Promega, Madison, WI, USA) and added to microscope slides previously prepared with normal-melting-point agarose 1% (NMP, Invitrogen, Carlsbad, CA, USA). A third LMP agarose layer (150 µL) was added. The slides were immersed in a cooled lysing solution (pH 10) with 10% DMSO, 1% Triton X-100 (Sigma Aldrich, Saint Louis, MO, USA), 2.5 M NaCl (Loba Chemie, Mumbai, India), 100 mM EDTA and 10 mM Tris (Invitrogen, Carlsbad, CA, USA) for 12 h at 4 °C. All steps after lysis were performed under darkness or yellow light to prevent additional DNA damage. The slides were immersed for 20 min in an electrophoresis buffer solution (pH 13) with NaOH 300 mM (Fisher Scientific, Waltham, MA, USA) and EDTA 1 mM (Invitrogen, Carlsbad, CA, USA) to allow for DNA unwinding. Electrophoresis was later performed at 25 V and 300 mA for 20 min. Slides were then sprayed with a neutralization buffer (pH 7.5) 0.4 M Tris (Sigma Aldrich, Saint Louis, MO, USA). Ethidium bromide (60 µL) was added to each slide, and a cover glass was placed on the gel. The DNA migration was analyzed using a ZEISS-Axioskop 2 plus microscope with fluorescence (40×) by scoring 100 cells per slide in duplicate. After that, the tail moment parameter was analyzed by a Comet Assay IV software (Perceptive Instruments Ltd., Bury St Edmunds, Suffolk, UK).

[3] = RAW cells, 48 h, MTT, read-out: Cytotoxicity CC50
[4] = Statistical Analyses S1, unrounded mean of CC50 in RAW cells, unit inferred, read-out: CC50 original values, x.1 (Mean)
[5] = read-out: IC50 original values, x.1 (Mean)
[6] = L. mexicana promastigotes, 48 h, MTT, read-out: Leishmanicidal Activity IC50

COc1ccc(C2[C@@]3(C(=O)N(c4ccccc4)N=C3C)[C@]23C(=O)N(c2ccccc2)N=C3C)cc1 (relative stereo) [4e, (5R*,6R*)-11-(4-Methoxyphenyl)-4,10-dimethyl-2,8-diphenyl-2,3,8,9-tetraazadispiro[4.0.4.1]undeca-3,9-diene-1,7-dione]
CC50 at 48 h [1, 3]: 7300 ± 2000 nM | CC50 at 48 h [1, 4]: 7280 nM | SI (Selectivity Index) = Citotoxic activity/Leishmanicidal activity [2]: 4.9 | IC50 [2, 5]: 1480 nM | IC50 [2, 6]: 1480 ± 250 nM | inhibition at 100 µM (PC-3): 17.9 ± 3.4% | inhibition at 100 µM (A-549): 7.97 ± 1.46%

CSc1ccc(C2[C@]3(C(=O)N(c4ccccc4)N=C3C)[C@@]23C(=O)N(c2ccccc2)N=C3C)cc1 (relative stereo) [4u, (5R*,6R*)-11-(4-Thiomethylphenyl)-4,10-dimethyl-2,8-diphenyl-2,3,8,9-tetraazadispiro[4.0.4.1]undeca-3,9-diene-1,7-dione]
CC50 at 48 h [1, 3]: 9300 ± 3400 nM | CC50 at 48 h [1, 4]: 9300 nM | Genotoxic effect in comet assay versus DMSO control (CHO-K1 cells): did not show differences with respect to the control of DMSO | SI (Selectivity Index) = Citotoxic activity/Leishmanicidal activity [2]: 22.1 | IC50 [2, 5]: 417 nM | IC50 [2, 6]: 420 ± 250 nM | inhibition at 100 µM (PC-3): 38.7 ± 3.77% | inhibition at 100 µM (A-549): 3.64 ± 1.81%

COc1ccccc1C1[C@@]2(C(=O)N(c3ccccc3)N=C2C)[C@]12C(=O)N(c1ccccc1)N=C2C (relative stereo) [4f, (5R*,6R*)-11-(2-Methoxyphenyl)-4,10-dimethyl-2,8-diphenyl-2,3,8,9-tetraazadispiro[4.0.4.1]undeca-3,9-diene-1,7-dione]
CC50 at 48 h [1, 3]: 12800 ± 1200 nM | CC50 at 48 h [1, 4]: 12800 nM | SI (Selectivity Index) = Citotoxic activity/Leishmanicidal activity [2]: 5.7 | IC50 [2, 5]: 2230 nM | IC50 [2, 6]: 2230 ± 70 nM | inhibition at 100 µM (PC-3): 28.3 ± 2.56% | inhibition at 100 µM (A-549): 10.4 ± 3.28%

CC1=NN(c2ccccc2)C(=O)[C@@]12C(c1ccccc1)[C@@]21C(=O)N(c2ccccc2)N=C1C (relative stereo) [4b, (5R*,6R*)-4,10-Dimethyl-2,8,11-triphenyl-2,3,8,9-tetraazadispiro[4.0.4.1]undeca-3,9-diene-1,7-dione]
CC50 at 48 h [1, 3]: 3400 ± 1500 nM | CC50 at 48 h [1, 4]: 3440 nM | Genotoxic effect in comet assay versus DMSO control (CHO-K1 cells): did not show differences with respect to the control of DMSO | SI (Selectivity Index) = Citotoxic activity/Leishmanicidal activity [2]: 21.3 | IC50 [2, 5]: 158 nM | IC50 [2, 6]: 160 nM | inhibition at 100 µM (PC-3): 17.6 ± 2.83%

CC1=NN(c2ccccc2)C(=O)[C@@]12C(c1ccc(OC(F)(F)F)cc1)[C@@]21C(=O)N(c2ccccc2)N=C1C (relative stereo) [4s, (5R*,6R*)-11-(4-Trifluoromethoxyphenyl)-4,10-dimethyl-2,8-diphenyl-2,3,8,9-tetraazadispiro[4.0.4.1]undeca-3,9-diene-1,7-dione]
CC50 at 48 h [1, 3]: 8600 ± 3200 nM | CC50 at 48 h [1, 4]: 8630 nM | SI (Selectivity Index) = Citotoxic activity/Leishmanicidal activity [2]: 45.3 | IC50 [2, 5]: 189 nM | IC50 [2, 6]: 190 ± 70 nM | inhibition at 100 µM (PC-3): 49.7 ± 2.11% | IC50 (PC-3): 70300 ± 1900 nM | inhibition at 100 µM (A-549): 24.4 ± 1.36%

CC1=NN(c2ccccc2)C(=O)[C@@]12C(c1cccc(F)c1)[C@@]21C(=O)N(c2ccccc2)N=C1C (relative stereo) [4t, (5R*,6R*)-11-(3-Fluorophenyl)-4,10-dimethyl-2,8-diphenyl-2,3,8,9-tetraazadispiro[4.0.4.1]undeca-3,9-diene-1,7-dione]
CC50 at 48 h [1, 3]: 2700 ± 700 nM | CC50 at 48 h [1, 4]: 2740 nM | Genotoxic effect in comet assay versus DMSO control (CHO-K1 cells): did not show differences with respect to the control of DMSO | SI (Selectivity Index) = Citotoxic activity/Leishmanicidal activity [2]: 12.3 | IC50 [2, 5]: 216 nM | IC50 [2, 6]: 220 ± 50 nM | inhibition at 100 µM (PC-3): 13.8 ± 2.87% | inhibition at 100 µM (A-549): 3.43 ± 2.42%

CC1=NN(c2ccccc2)C(=O)[C@@]12C(c1ccc(C(F)(F)F)cc1)[C@@]21C(=O)N(c2ccccc2)N=C1C (relative stereo) [4r, (5R*,6R*)-11-(4-Trifluoromethylphenyl)-4,10-dimethyl-2,8-diphenyl-2,3,8,9-tetraazadispiro[4.0.4.1]undeca-3,9-diene-1,7-dione]
CC50 at 48 h [1, 3]: 6500 ± 900 nM | CC50 at 48 h [1, 4]: 6480 nM | SI (Selectivity Index) = Citotoxic activity/Leishmanicidal activity [2]: 34.2 | IC50 [2, 5]: 188 nM | IC50 [2, 6]: 190 ± 60 nM | inhibition at 100 µM (PC-3): 54.7 ± 1.95% | IC50 (PC-3): 49800 ± 5510 nM | inhibition at 100 µM (A-549): 28.6 ± 3.71%

CC1=NN(c2ccccc2)C(=O)[C@@]12C(c1ccccc1[N+](=O)[O-])[C@@]21C(=O)N(c2ccccc2)N=C1C (relative stereo) [4c, (5R*,6R*)-11-(2-Nitrophenyl)-4,10-dimethyl-2,8-diphenyl-2,3,8,9-tetraazadispiro[4.0.4.1]undeca-3,9-diene-1,7-dione]
CC50 at 48 h [1, 3]: 2300 ± 200 nM | CC50 at 48 h [1, 4]: 2260 nM | SI (Selectivity Index) = Citotoxic activity/Leishmanicidal activity [2]: 15.3 | IC50 [2, 5]: 150 nM | IC50 [2, 6]: 150 ± 40 nM | inhibition at 100 µM (PC-3): 11 ± 3.5% | inhibition at 100 µM (A-549): 6.1 ± 0.86%
